Biological target: PIK3CG (human) (UniProt P48736)
Test: Inhibition of PIK3CG Kinase Activity

Sequence of PIK3CG (human) (P48736 whole entry, looked up): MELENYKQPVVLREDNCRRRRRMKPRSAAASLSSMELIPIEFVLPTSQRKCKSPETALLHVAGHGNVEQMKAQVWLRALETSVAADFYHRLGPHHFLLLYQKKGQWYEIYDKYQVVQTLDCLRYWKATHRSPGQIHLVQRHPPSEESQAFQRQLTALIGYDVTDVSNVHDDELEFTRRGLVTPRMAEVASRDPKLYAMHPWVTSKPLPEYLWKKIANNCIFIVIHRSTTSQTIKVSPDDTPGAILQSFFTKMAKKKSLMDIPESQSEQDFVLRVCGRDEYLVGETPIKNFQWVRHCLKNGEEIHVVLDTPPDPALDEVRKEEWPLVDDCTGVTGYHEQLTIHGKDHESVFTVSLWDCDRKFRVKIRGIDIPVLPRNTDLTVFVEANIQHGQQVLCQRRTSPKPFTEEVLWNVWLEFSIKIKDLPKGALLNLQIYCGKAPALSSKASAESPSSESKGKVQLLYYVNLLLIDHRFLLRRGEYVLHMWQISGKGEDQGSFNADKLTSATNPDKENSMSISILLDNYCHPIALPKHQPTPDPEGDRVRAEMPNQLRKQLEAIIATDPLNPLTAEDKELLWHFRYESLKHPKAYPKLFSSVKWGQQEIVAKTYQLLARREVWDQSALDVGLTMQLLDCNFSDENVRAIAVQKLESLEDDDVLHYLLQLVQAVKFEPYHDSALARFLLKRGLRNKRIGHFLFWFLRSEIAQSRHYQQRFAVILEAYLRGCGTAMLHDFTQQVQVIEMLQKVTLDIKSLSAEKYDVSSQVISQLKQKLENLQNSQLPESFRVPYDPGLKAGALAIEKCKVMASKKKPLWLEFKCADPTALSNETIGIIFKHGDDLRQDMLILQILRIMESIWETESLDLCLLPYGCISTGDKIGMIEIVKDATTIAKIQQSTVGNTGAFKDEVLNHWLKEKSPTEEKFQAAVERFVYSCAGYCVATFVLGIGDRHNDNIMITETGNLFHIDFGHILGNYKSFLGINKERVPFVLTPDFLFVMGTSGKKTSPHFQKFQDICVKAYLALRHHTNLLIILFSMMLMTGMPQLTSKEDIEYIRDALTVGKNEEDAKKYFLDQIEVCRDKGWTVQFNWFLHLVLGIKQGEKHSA

Row | SMILES | IC50 [µM]
1 | CC(C)(NS(=O)(=O)c1cncc(-c2ccc3nc(N)nn3c2)c1)c1ccc(F)cc1 | < 10
2 | Nc1nc2ccc(-c3cncc(S(=O)(=O)Cc4ccccc4)c3)cn2n1 | < 10
3 | CCNS(=O)(=O)c1cncc(-c2ccc3nc(N)nn3c2)c1 | < 10
4 | Nc1nc2ccc(-c3cccc(S(=O)(=O)NCCO)c3)cn2n1 | < 10
5 | Nc1nc2ccc(-c3cncc(S(=O)(=O)Nc4cccc(F)c4F)c3)cn2n1 | < 10
6 | Nc1nc2c(F)cc(-c3cncc(C(F)(F)F)c3)cn2n1 | < 10
7 | CC(C)(C)COc1cncc(-c2ccc3nc(N)nn3c2)c1 | < 10
8 | Nc1nc2ccc(-c3cncc(S(=O)(=O)N4CCCC4)c3)cn2n1 | < 10
9 | Nc1nc2ccc(-c3cncc(S(=O)(=O)Nc4ccc(F)cc4)c3)cn2n1 | < 10
10 | Nc1nc2ccc(-c3cnc(N)c(C(F)(F)F)c3)cn2n1 | < 10
11 | CN(C)CCN(C)S(=O)(=O)c1cccc(-c2ccc3nc(N)nn3c2)c1 | < 10
12 | Nc1nc2ccc(-c3cn[nH]c3)cn2n1 | < 10
13 | Nc1nc2ccc(-c3cncc(S(=O)(=O)N(Cc4ccccc4F)C4CC4)c3)cn2n1 | < 10
14 | CCCCN(Cc1ccccc1)S(=O)(=O)c1cncc(-c2ccc3nc(N)nn3c2)c1 | < 10
15 | CS(=O)(=O)c1cccc(-c2cc(F)c3nc(N)nn3c2)c1 | < 10
16 | CC(C)CNS(=O)(=O)c1cncc(-c2ccc3nc(N)nn3c2)c1 | < 10
17 | Nc1nc2ccc(-c3cncc(S(=O)(=O)N4CCc5ccccc5C4)c3)cn2n1 | < 10
18 | CCN(C)S(=O)(=O)c1cncc(-c2ccc3nc(N)nn3c2)c1 | < 10
19 | Cc1nc(C)c(CNS(=O)(=O)c2cncc(-c3ccc4nc(N)nn4c3)c2)o1 | < 10
20 | CCC(CC)CNS(=O)(=O)c1cncc(-c2ccc3nc(N)nn3c2)c1 | < 10
21 | COc1ccc(NS(=O)(=O)c2cncc(-c3ccc4nc(N)nn4c3)c2)cc1 | < 10
22 | COc1ccccc1NS(=O)(=O)c1cncc(-c2ccc3nc(N)nn3c2)c1 | < 10
23 | CC(C)(C)NS(=O)(=O)c1cncc(-c2cc(F)c3nc(N)nn3c2)c1 | < 10
24 | CC(C)(C)S(=O)(=O)c1cncc(-c2ccc3nc(N)nn3c2)c1 | < 10
25 | CC(C)(C)NS(=O)(=O)c1cccc(-c2ccc3nc(N)nn3c2)c1 | < 10

Row | SMILES | IC50 [µM]
26 | Nc1nc2ccc(-c3cncc(S(=O)(=O)Nc4cc(C(F)(F)F)cc(C(F)(F)F)c4)c3)cn2n1 | < 10
27 | CN(C)CCCNS(=O)(=O)c1cncc(-c2ccc3nc(N)nn3c2)c1 | < 10
28 | COc1cccc(NS(=O)(=O)c2cncc(-c3ccc4nc(N)nn4c3)c2)c1 | < 10
29 | CN(C)CCCNS(=O)(=O)c1cccc(-c2ccc3nc(N)nn3c2)c1 | < 10
30 | N#Cc1cccc(-c2ccc3nc(N)nn3c2)c1 | < 10
31 | CN(C)C(=O)CNS(=O)(=O)c1cncc(-c2ccc3nc(N)nn3c2)c1 | < 10
32 | CC(C)NS(=O)(=O)c1cncc(-c2cc(F)c3nc(N)nn3c2)c1 | < 10
33 | Nc1nc2ccc(-c3cccc(S(N)(=O)=O)c3)cn2n1 | < 10
34 | Nc1nc2ccc(-c3cncc(S(=O)(=O)Nc4cccc(C(F)(F)F)c4)c3)cn2n1 | < 10
35 | CCN(CC)S(=O)(=O)c1cncc(-c2ccc3nc(N)nn3c2)c1 | < 10
36 | CS(=O)(=O)c1cccc(-c2ccc3nc(N)nn3c2)c1 | < 10
37 | Nc1nc2ccc(-c3cncc(S(N)(=O)=O)c3)cn2n1 | < 10
38 | Nc1nc2ccc(-c3ccccc3)cn2n1 | < 10
39 | Nc1nc2ccc(-c3cc[nH]n3)cn2n1 | < 10
40 | COc1ccc(-c2cc(Cl)c3nc(N)nn3c2)cc1OC | < 10
41 | Nc1nc2ccc(-c3cncc(S(=O)(=O)N4CCCCC4)c3)cn2n1 | < 10
42 | Nc1nc2ccc(-c3cncc(S(=O)(=O)Nc4ccc(OC(F)(F)F)cc4)c3)cn2n1 | < 10
43 | CC(C)c1ccc(NS(=O)(=O)c2cncc(-c3ccc4nc(N)nn4c3)c2)cc1 | < 10
44 | Nc1nc2ccc(-c3cncc(S(=O)(=O)Nc4cccc(OC(F)(F)C(F)F)c4)c3)cn2n1 | < 10
45 | Nc1nc2ccc(-c3cccc(S(=O)(=O)NCCCC(=O)O)c3)cn2n1 | < 10
46 | CNS(=O)(=O)c1cncc(-c2cc(F)c3nc(N)nn3c2)c1 | < 10
47 | COc1ccc(-c2ccc3nc(N)nn3c2)cc1OC(C)C | < 10
48 | CCCCNS(=O)(=O)c1cccc(-c2ccc3nc(N)nn3c2)c1 | < 10
49 | Nc1nc2ccc(-c3cncc(S(=O)(=O)Nc4ccc(F)c(F)c4)c3)cn2n1 | < 10
50 | CCN(C)S(=O)(=O)c1cncc(-c2cc(F)c3nc(N)nn3c2)c1 | < 10

From the Kinase Knowledgebase extract (Sharma et al. 2016)
